Source: patent US10800789B2, “Antiviral compounds” (Gilead Pharmasset LLC, priority 2012, dated 2020)
Read-outs that look alike come from different tables or passages of the source.

Columns and labels:
[1] = tested on: stable HCV 1b RLuc replicon cells (dicistronic genotype 1b Con1 replicon); test: Renilla luciferase HCV replicon reporter assay, genotype 1b; assay type: cell-based; settings: Hepatitis C virus, 72 h, stable 1b Con1 RLuc replicon cells, 72 hours; read-out: 1b
How it was run: (§1)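 Cells carrying the stable or transiently transfected (Huh-Lunet) dicistronic RLuc replicons received 3-fold serial compound dilutions from 10 mM DMSO stocks. After 72 h, cells were lysed and Renilla luciferase read. DMSO served as the no-inhibition control and ITMN-191 above 100×EC50 as the positive control; EC50 by non-linear regression.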

[2] = tested on: stable HCV 1a RLuc replicon cells (dicistronic genotype 1a H77 replicon); test: Renilla luciferase HCV replicon reporter assay, genotype 1a; assay type: cell-based; settings: Hepatitis C virus, 72 h, stable 1a H77 RLuc replicon cells
How it was run: as §1

[3] = tested on: Q30R in genotype 1a NS5A (1a Pi-Rluc replicon, Huh-7-derived cured-51 cells); test: Replicon assay against resistance mutant 1a Q30R; assay type: cell-based, HCV; settings: Hepatitis C virus
How it was run: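 Q30R introduced by site-directed mutagenesis into the 1a Pi-RLuc replicon; replicon RNA transiently transfected into cured-51 cells. Cells treated with 3-fold serially diluted compound for 72 h, then lysed and Renilla luciferase measured; EC50 by non-linear regression.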

[4] = tested on: stable HCV 2a JFH-1 Rluc replicon cells (L31 present in NS5A); test: Renilla luciferase HCV replicon reporter assay, genotype 2a JFH-1; assay type: cell-based; settings: Hepatitis C virus
How it was run: as §1

[5] = tested on: NS5A chimeric genotype 2a JFH-1 replicon with genotype 2b MD2b-1 strain NS5A gene (M31 present); test: Replicon assay, genotype 2b NS5A chimera; assay type: cell-based, HCV; settings: Hepatitis C virus
How it was run: as §1

[6] = tested on: NS5A chimeric genotype 1b Con1 replicon with genotype 3a S52 strain NS5A gene; test: Replicon assay, genotype 3a NS5A chimera; assay type: cell-based, HCV; settings: Hepatitis C virus
[7] = IV and PO single dose pharmacokinetic studies in SD rats; assay type: in vivo, male Sprague-Dawley (SD) rats; settings: Sprague-Dawley, rat, plasma, male SD rats, PO 2 mg/kg vs IV infusion 1 mg/kg, read-out: Rat % F
Method: IV and PO Single Dose Pharmacokinetic Studies in SD Rats:
The pharmacokinetics of selected compounds was characterized in male Sprague-Dawley (SD) rats (250-300g). In this study, two groups of naïve purebred SD rats (N=3 per group, fasted over night) received the selected compound either as an intravenous (IV) infusion (1 mg/kg over 30 minutes) via the jugular vein or by oral gavage (2 mg/kg). The intravenous (IV) dosing vehicle was 5% ethanol, 35% polyethylene glycol 400 (PEG 400) and 60% water pH 2.0. The oral dosing vehicle was 5% ethanol, 55% PEG 400 and 40% citrate buffer pH 2.2.
Serial blood samples (approximately 0.3 mL each) were collected from jugular vein or other suitable vein at specified time points. For the IV infusion group, the blood samples were collected predose and at 0.25, 0.48, 0.58, 0.75, 1.5, 3, 6, 8, 12 and 24 hours after the start of infusion. For the oral group, the blood samples were collected predose and at 0.25, 0.50, 1, 2, 4, 6, 8, 12 and 24 hours after dosing. The blood samples were collected into VacutainerγM tubes containing EDTA-K3 as the anti-coagulant and were centrifuged at approximately 4° C. to obtain plasma. The plasma samples were stored at −20° C. until analysis by LC/MS/MS.
A bioanalytical method utilizing high performance liquid chromatography coupled to tandem mass spectrometry (LC/MS/MS) was developed for analysis of the selected compound in rat plasma. Detection was performed using selected reaction monitoring (SRM); Ions representing the precursor (M+H)^+ species was selected in quadrupole 1 (Q1) and collided with argon gas in the collision cell (Q2) to generate specific product ion, which was subsequently monitored by quadrupole 3 (Q3). Standard curve and quality control samples were prepared in male rat plasma and processed in the same way as the test samples to generate quantitative data.
Pharmacokinetic parameters were generated using non-compartmental pharmacokinetic analysis (Phoenix WinNonlin, version 6.3). Values below the lower limit of quantification (LLOQ) were assigned a value of zero if predose and treated as missing thereafter. Area under the curve (AUC) was calculated using the linear trapezoidal rule. The oral bioavailability (% F) was determined by comparison of the area under the curve (AUC) of the compound and/or a metabolite generated in plasma following oral administration to that generated following intravenous administration.

[8] = tested on: NS5A chimeric genotype 2a JFH-1 replicon with genotype 2a J6 strain NS5A gene (M31 present); test: Replicon assay, genotype 2a J6 NS5A chimera; assay type: cell-based, HCV; settings: Hepatitis C virus
How it was run: as §1

[9] = tested on: NS5A chimeric genotype 1b Con1 replicon with genotype 4a ED43 strain NS5A gene; test: Replicon assay, genotype 4a NS5A chimera; assay type: cell-based, HCV; settings: Hepatitis C virus
[10] = read-out: 2a JFH (nM), genotype 2a JFH-1 replicon (L31 in NS5A), stable cells
[11] = read-out: 2a JFH, stable 2a JFH-1 Rluc replicon cells, L31 in NS5A, activity range
[12] = 2BS, read-out: 2b (s), stably replicating replicon cells (s), activity range
[13] = read-out: 2b (s) (nM), genotype 2b MD2b-1 NS5A chimeric replicon (M31), stably replicating replicon cells (s)
[14] = read-out: 3a (s) (nM), genotype 3a NS5A chimeric replicon, stable replicon cells (s)
[15] = read-out: 3a (s), (s), activity range
[16] = read-out: 2a J6 (t) (nM), genotype 2a J6 NS5A chimeric replicon (M31), transiently transfected (t) into Huh-Lunet cells
[17] = read-out: 2a J6 (t), transiently transfected (t) into Huh-Lunet cells, activity range
[18] = read-out: 4a (s) (nM), genotype 4a NS5A chimeric replicon, stable replicon cells (s)
[19] = read-out: 4a (s), (s), activity range
[20] = read-out: 2a J6 (s) (nM), genotype 2a J6 NS5A chimeric replicon (M31), stably replicating replicon cells (s)
[21] = read-out: 2a J6 (s), stably replicating replicon cells (s), activity range

SMILES	EC50 [1] [pM]	EC50 [2] [pM]	EC50 ([2]; activity range) [pM]	EC50 ([3]; read-out: 1a Q30R) [nM]	EC50 ([3]; read-out: 1a Q30R (nM)) [nM]	EC50 [4, 10] [nM]	EC50 [4, 11] [nM]	EC50 [5, 12] [nM]	EC50 [5, 13] [nM]	EC50 ([5]; read-out: 2b (t) (nM), genotype 2b MD2b-1 NS5A chimeric replicon (M31), transiently transfected (t)) [nM]	EC50 ([5]; read-out: 2b (t), transiently transfected (t) into Huh-Lunet cells, activity range) [nM]	EC50 [6, 14] [nM]	EC50 [6, 15] [nM]	bioavailability [7] [%]	EC50 [8, 16] [nM]	EC50 [8, 17] [nM]	EC50 [9, 18] [nM]	EC50 [9, 19] [nM]	EC50 [8, 20] [nM]	EC50 [8, 21] [nM]
CC[C@H]1CC[C@@H](c2ncc(-c3ccc4c(c3)COc3cc5c(ccc6nc([C@@H]7CC[C@H](C)N7C(=O)[C@@H](NC(=O)OC)C7CCOCC7)[nH]c65)cc3-4)[nH]2)N1C(=O)[C@@H](NC(=O)OC)C(C)C [EN, methyl[(1 S)-2-[(2S,5S)-2-(9-{2-[(2S,5S)-5-ethyl-1-{(2S)-2 [(methoxycarbonyl)amino]-3-methylbutanoyl}pyrrolidin-2-yl]-1H-imidazol-5-yl}-1,11 dihydroisochromeno[4′,3′:6,7]naphtho[1,2-d]imidazol-2-yl)-5-methylpyrrolidin-1-yl]-2-oxo-1(tetrahydro-2H-pyran-4-yl)ethyl]carbamate]	34	18	< 100	< 0.1	0.043	0.015	< 0.1	< 0.1	0.095	0.052	< 0.1	0.061	< 0.1	29.9						
CC[C@H](C)[C@H](NC(=O)OC)C(=O)N1[C@@H](C)CC[C@H]1c1nc2ccc3cc4c(cc3c2[nH]1)OCc1cc(-c2cnc([C@@H]3CC[C@H](C)N3C(=O)[C@@H](NC(=O)OC)C3CCOCC3)[nH]2)ccc1-4 [FQ, Methyl [(1 S)-2-[(2S,5S)-2-(5-{2-[(2S,5S)-1-{(2S,3S)-2-[(methoxycarbonyl)amino]-3-methylpentanoyl}-5-methylpyrrolidin-2-yl]-1,11-dihydroisochromeno[4′,3′:6,7]naphtho[1,2-d]imidazol-9-yl}-1H-imidazol-2-yl)-5-methylpyrrolidin-1-yl]-2-oxo-1-(tetrahydro-2H-pyran-4-yl)ethyl]carbamate]	19	12	< 100	< 0.1	0.097	0.01	< 0.1	< 0.1	0.066			0.02	< 0.1	17.7						
COC(=O)N[C@H](C(=O)N1C[C@@H](C)C[C@H]1c1nc2ccc3cc4c(cc3c2[nH]1)OCc1cc(-c2cnc([C@@H]3CC[C@H](C)N3C(=O)[C@@H](NC(=O)OC)[C@@H](C)OC)[nH]2)ccc1-4)C(C)C [GA]	35	19	< 100			0.018	< 0.1	0.1 to 0.999	0.245			0.063	< 0.1	3.2	0.064	< 0.1	0.016	< 0.1		
CC[C@H]1CC[C@@H](c2ncc(-c3ccc4c(c3)COc3cc5c(ccc6nc([C@@H]7CC[C@H](CC)N7C(=O)[C@@H](NC(=O)OC)C7CCOCC7)[nH]c65)cc3-4)[nH]2)N1C(=O)[C@@H](NC(=O)OC)C1CCOCC1 [IE]	54	42	< 100			0.035	< 0.1	< 0.1	0.065			0.198	0.1 to 0.999	2.2	0.042	< 0.1	0.039	< 0.1		
CC[C@H]1CC[C@@H](c2ncc(-c3ccc4c(c3)COc3cc5c(ccc6nc([C@@H]7CC[C@H](CC)N7C(=O)[C@@H](NC(=O)OC)C7CCOCC7)[nH]c65)cc3-4)[nH]2)N1C(=O)[C@@H](NC(=O)OC)C(C)C [IG]	35	27	< 100			0.034	< 0.1	0.1 to 0.999	0.25			0.787	0.1 to 0.999	28.2	0.122	0.1 to 0.999	0.025	< 0.1		
CC[C@H](C)[C@H](NC(=O)OC)C(=O)N1[C@@H](C)CC[C@H]1c1ncc(-c2ccc3c(c2)COc2cc4c(ccc5nc([C@@H]6C[C@@H]7CCC[C@@H]7N6C(=O)[C@@H](NC(=O)OC)C6CCOCC6)[nH]c54)cc2-3)[nH]1 [IP]	29	25	< 100			0.033	< 0.1	< 0.1	0.074			0.067	< 0.1	18.9	0.041	< 0.1	0.027	< 0.1		
COC(=O)N[C@H](C(=O)N1[C@H](c2ncc(-c3ccc4c(c3)COc3cc5c(ccc6nc([C@@H]7C[C@@H]8CCC[C@@H]8N7C(=O)[C@@H](NC(=O)OC)C7CCOCC7)[nH]c65)cc3-4)[nH]2)C[C@@H]2CCC[C@@H]21)C(C)C [IT]	17	12	< 100			0.017	< 0.1	< 0.1	0.064			0.032	< 0.1	16.2			0.004	< 0.1	0.007	< 0.1
CC[C@H]1CC[C@@H](c2nc3ccc4cc5c(cc4c3[nH]2)OCc2cc(-c3cnc([C@@H]4C[C@@H]6CCC[C@@H]6N4C(=O)[C@@H](NC(=O)OC)C(C)C)[nH]3)ccc2-5)N1C(=O)[C@@H](NC(=O)OC)C1CCOCC1 [IU]	22	16	< 100			0.02	< 0.1	0.1 to 0.999	0.119			0.098	< 0.1	26.5			0.004	< 0.1	0.028	< 0.1
